Experimental data: patent US20100324058A1 (Obschestvo S Organichennoi Otvetsttvennoctiyou "Bionika", priority 2007, published 2010)

Experiments:
[1] = cited from earlier work
experimental animals = conditions: lethal dose of argothroban after clinical testing; cited from earlier work
thrombin [2] = target: T1, thrombin (Homo sapiens, UniProt P00734); experiment: Effect of test compounds on thrombin activity: hydrolysis rate of chromogenic (Chromozim TH) or fluorogenic (BOC-Ala-Pro-Arg-AMC) substrate; format: biochemical; conditions: for inhibition at 0.0025 µM: concentration of compound 2.5 nM; for inhibition at 0.005 µM: concentration of compound 5 nM; for inhibition at 0.025 µM: concentration of compound 25 nM; for inhibition at 0.05 µM: concentration of compound 50 nM
Source text: The effect of the synthesized substances on thrombin activity was studied by measuring the hydrolysis rate of specific low molecular weight substrates with thrombin in an aqueous buffering solution in the absence and presence of these compounds. One of these substrates was chromogenic substrate Chromozim TH (CTH): N-(p-Tosyl)-Gly-Pro-Arg-pNA [Sonder S A, Fenton J W 2nd. Thrombin Specificity with Tripeptide Chromogenic Substrates: Comparison of Human and Bovine Thrombins with and without Fibrinogen Clotting Activities. Clin. Chem., 1986, 32(6):934-937]. Another substrate that was used in a number of experiments was fluorogenic substrate BOC-Ala-Pro-Arg-AMC (S), wherein BOC is butoxycarbonyl residue, and AMC is 7-amino-4-methylcoumaryl [Kawabata S, Miura T, Morita T, Kato H, Fujikawa K, Ivanaga S, Takada K, Kimura T, Sakakibara S. Highly Sensitive peptide-4-methylcoumaryl-7-amide Substrates for Blood-Clotting Proteases and Trypsin. Eur. J. Biochem., 1988, 172(1):17-25].
The holes of a common 96-hole board were filled with a buffer containing 140 mM of NaCl, 20 mM of HEPES, and 0.1% polyethylene glycol (Mw=6,000), at pH=8.0. […] When a chromogenic substrate was used, accumulation of the colored reaction product—para-nitroaniline—was followed on a spectrophotometric Molecular Devices board reader (Thermomax, U.S.), measuring the increase in optical density on the 405 nm wavelength. […] The reaction kinetics was registered on a fluorometric Titertek Fluoroskan board reader (LabSystem, Finland).
The initial reaction rate was measured as the tangent of the kinetic curve inclination angle on a straight section (first 10 to 15 minutes of registration). Reaction rate without an inhibitor was a ssumed to be 100%. The mean arithmetic value of two independent measurements was used as the end result.

thrombin [3] = target: T1, thrombin; conditions: literature, PDB complex; cited from earlier work
[4] = concentration of compound 2.5 mcM
[5] = concentration of compound 0.25 mcM
[6] = concentration of compound 0.5 mcM

Question: With `CC1CNc2c(cccc2S(=O)(=O)N[C@@H](CCCNC(=N)N)C(=O)N2CC[C@@H](C)C[C@@H]2C(=O)O)C1` (stereo partly shown) [Argatroban] as the compound, how does the T1/2 in plasma [1] read?
Answer: The T1/2 in plasma was 36 min.

Question: What about the LD50 (experimental animals) of the same compound?
Answer: The LD50 was 475 mg/kg.

Question: Which inhibition at 0.0025 µM (thrombin [2]) does the source give for `Cc1cc(OCC[n+]2ccc(N)cc2)cc(OS(=O)(=O)c2ccc(Cl)cc2)c1` [HC_039s_IOC] here?
Answer: The inhibition at 0.0025 µM was 24%.

Question: What about the inhibition at 0.005 µM (thrombin [2]) of the same compound?
Answer: The inhibition at 0.005 µM was 44%.

Question: And the inhibition at 0.025 µM (thrombin [2])?
Answer: Its inhibition at 0.025 µM is 73%.

Question: What about the inhibition at 0.05 µM (thrombin [2]) of the same compound?
Answer: The inhibition at 0.05 µM was 88%.

Question: What about the “Hydrolysis rate inhibition, %” value (thrombin [2]; [4]) of the same compound?
Answer: Its value is 98%.

Question: What does the source list for `Cc1cc(OCCSC(=N)N)cc(OS(=O)(=O)c2ccccc2S(C)(=O)=O)c1` [HC_040s_IOC]?
Answer: inhibition at 0.0025 µM (thrombin [2]): 4%; inhibition at 0.005 µM (thrombin [2]): 19%; inhibition at 0.025 µM (thrombin [2]): 66%; inhibition at 0.05 µM (thrombin [2]): 75%; Hydrolysis rate inhibition, % (thrombin [2]; [4]): 100%

Question: Which “Hydrolysis rate inhibition, %” value (thrombin [2]; concentration of compound 0.1 mcM) does the source give for `Nc1cc[n+](CCOc2cccc(NS(=O)(=O)c3ccccc3)c2)cc1` [HC_041s_IOC] here?
Answer: Its value is 56%.

Question: What about the “Hydrolysis rate inhibition, %” value (thrombin [2]; [5]) of the same compound?
Answer: The value was 62%.

Question: What about the “Hydrolysis rate inhibition, %” value (thrombin [2]; [6]) of the same compound?
Answer: Its value is 75%.

Question: What about the “Hydrolysis rate inhibition, %” value (thrombin [2]; concentration of compound 1.75 mcM) of the same compound?
Answer: Its value is 88%.

Question: And the “Hydrolysis rate inhibition, %” value (thrombin [2]; concentration of compound 3.75 mcM)?
Answer: Its value is 90%.

Question: What about the “Hydrolysis rate inhibition, %” value (thrombin [2]; concentration of compound 25 mcM) of the same compound?
Answer: Its value is 95%.

Question: And the “Hydrolysis rate inhibition, %” value (thrombin [2]; concentration of compound 250 mcM)?
Answer: Its value is 99%.

Question: Which results are given for `Cc1cc(OCC[n+]2ccsc2N)cc(OS(=O)(=O)c2ccccc2Cl)c1.[I-]` [HC_045s_IOC]?
Answer: Hydrolysis rate inhibition, % (thrombin [2]; concentration of compound 0.125 mcM): 10%; Hydrolysis rate inhibition, % (thrombin [2]; [5]): 18%; Hydrolysis rate inhibition, % (thrombin [2]; [6]): 42%; Hydrolysis rate inhibition, % (thrombin [2]; concentration of compound 1.25 mcM): 66%; Hydrolysis rate inhibition, % (thrombin [2]; [4]): 87%

Question: What does the source list for `Cc1cc(OCCSC(=N)N)cc(OS(=O)(=O)c2ccccc2Cl)c1` [HC_046s_IOC]?
Answer: inhibition at 0.00125 µM (thrombin [2]; concentration of compound 1.25 nM): 18%; inhibition at 0.0025 µM (thrombin [2]): 39%; inhibition at 0.005 µM (thrombin [2]): 59%; inhibition at 0.0125 µM (thrombin [2]; concentration of compound 12.5 nM): 77%; inhibition at 0.025 µM (thrombin [2]): 92%

Question: With `Cc1cc(OCC[n+]2ccc(N)nc2)cc(OS(=O)(=O)c2ccccc2)c1.[I-]` [HC_047s_IOC] as the compound, how does the inhibition at 0.01 µM (thrombin [2]; concentration of compound 10 nM) read?
Answer: Its inhibition at 0.01 µM is 8%.

Question: And the inhibition at 0.025 µM (thrombin [2])?
Answer: Its inhibition at 0.025 µM is 10%.

Question: And the inhibition at 0.05 µM (thrombin [2])?
Answer: The inhibition at 0.05 µM was 14%.

Question: And the “Hydrolysis rate inhibition, %” value (thrombin [2]; [5])?
Answer: Its value is 36%.

Question: What about the “Hydrolysis rate inhibition, %” value (thrombin [2]; [6]) of the same compound?
Answer: Its value is 49%.

Question: What about the “Hydrolysis rate inhibition, %” value (thrombin [2]; concentration of compound 1.85 mcM) of the same compound?
Answer: The value was 84%.

Question: And the “Hydrolysis rate inhibition, %” value (thrombin [2]; [4])?
Answer: Its value is 90%.

Question: With `N=c1ccc2cc3ccc(N)cc3[nH]c-2c1` [Proflavin] as the compound, how does the Kd (thrombin [3]) read?
Answer: The Kd was ~10 µM.
